“And” between values parts separate entries of the source, which are not always exact repeats. Identical values can stand only once. Inconclusive results and toxic doses are left out. No stated cut-off is given here; in the data, active means T/C of 150% or more; inactive means T/C below 125%.
Tested on: L1210 leukemia ip in BDF1 mice, survival T/C
Test: NCI In Vivo Anticancer Drug Screen. Data for tumor model L1210 Leukemia (intraperitoneal) in B6D2F1 (BDF1) mice
Conditions: endpoint: mean survival time, higher = longer survival
Procedure, shortened: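 Read-out is survival time, reported as the treated-group measurement over the vehicle-control measurement.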

[1] = dose: 25.0 mg/kg/injection, schedule: Q01DX009 (ip), vehicle: saline with Tween-80
[2] = dose: 50.0 mg/kg/injection, schedule: Q01DX009 (ip), vehicle: saline with Tween-80
[3] = dose: 100.0 mg/kg/injection, schedule: Q01DX009 (ip), vehicle: saline with Tween-80
[4] = dose: 100.0 mg/kg/injection, schedule: Q01DX001 (ip), vehicle: carboxymethylcellulose (CMC)
[5] = dose: 200.0 mg/kg/injection, schedule: Q01DX001 (ip), vehicle: carboxymethylcellulose (CMC)
[6] = dose: 400.0 mg/kg/injection, schedule: Q01DX001 (ip), vehicle: carboxymethylcellulose (CMC)
[7] = dose: 100.0 mg/kg/injection, schedule: Q04DX002 (ip), vehicle: Klucel (hydroxypropylcellulose) (HPC)

Measured: T/C

CC1(C)N=C(N)N=C(N)N1c1ccc(Cl)c(Cl)c1
inactive: dose: 1.0 mg/kg/injection, schedule: Q01DX009 (ip), vehicle: saline 111 % of control | dose: 1.25 mg/kg/injection, schedule: Q01DX009 (ip), vehicle: saline 109 % of control | dose: 2.5 mg/kg/injection, schedule: Q01DX009 (ip), vehicle: saline 109 % of control and 117 % of control | dose: 5.0 mg/kg/injection, schedule: Q01DX001 (ip), vehicle: saline 105 % of control | dose: 5.0 mg/kg/injection, schedule: Q01DX009 (ip), vehicle: saline 119 % of control | dose: 10.0 mg/kg/injection, schedule: Q01DX001 (ip), vehicle: saline 102 % of control and 106 % of control | dose: 10.0 mg/kg/injection, schedule: Q01DX009 (ip), vehicle: saline 117 % of control and 118 % of control | dose: 20.0 mg/kg/injection, schedule: Q01DX001 (ip), vehicle: saline 105 % of control and 106 % of control | dose: 20.0 mg/kg/injection, schedule: Q01DX009 (ip), vehicle: saline 92 % of control | dose: 36.0 mg/kg/injection, schedule: Q01DX009 (ip), vehicle: saline 88 % of control | dose: 40.0 mg/kg/injection, schedule: Q01DX001 (ip), vehicle: saline 107 % of control and 92 % of control

COc1ccc2ccccc2c1C(=O)CCC(=O)O
inactive: dose: 87.0 mg/kg/injection, schedule: Q04DX003 (ip), vehicle: Klucel (hydroxypropylcellulose) (HPC) 97 % of control | dose: 175.0 mg/kg/injection, schedule: Q04DX003 (ip), vehicle: Klucel (hydroxypropylcellulose) (HPC) 93 % of control | dose: 350.0 mg/kg/injection, schedule: Q04DX003 (ip), vehicle: Klucel (hydroxypropylcellulose) (HPC) 102 % of control

O=C1C2=C(C(=O)c3ccccc31)C(=O)C1CC=CCC1C2=O (configuration not stated)
inactive: dose: 0.25 mg/kg/injection, schedule: Q04DX003 (ip), vehicle: saline with Tween-80 102 % of control | dose: 0.5 mg/kg/injection, schedule: Q04DX003 (ip), vehicle: saline with Tween-80 104 % of control | dose: 1.0 mg/kg/injection, schedule: Q04DX003 (ip), vehicle: saline with Tween-80 98 % of control | dose: 2.0 mg/kg/injection, schedule: Q04DX003 (ip), vehicle: saline with Tween-80 96 % of control | dose: 4.0 mg/kg/injection, schedule: Q04DX003 (ip), vehicle: saline with Tween-80 110 % of control | dose: 8.0 mg/kg/injection, schedule: Q04DX003 (ip), vehicle: saline with Tween-80 100 % of control and 105 % of control | dose: 16.0 mg/kg/injection, schedule: Q04DX003 (ip), vehicle: saline with Tween-80 102 % of control and 103 % of control | [1] 106 % of control | dose: 32.0 mg/kg/injection, schedule: Q04DX003 (ip), vehicle: saline with Tween-80 103 % of control | [2] 106 % of control | dose: 64.0 mg/kg/injection, schedule: Q04DX003 (ip), vehicle: saline with Tween-80 97 % of control and 105 % of control | [3] 110 % of control | dose: 128.0 mg/kg/injection, schedule: Q04DX003 (ip), vehicle: saline with Tween-80 105 % of control | dose: 200.0 mg/kg/injection, schedule: Q01DX009 (ip), vehicle: saline with Tween-80 101 % of control | dose: 256.0 mg/kg/injection, schedule: Q04DX003 (ip), vehicle: saline with Tween-80 94 % of control

CCOc1ccc(NC(=O)NCBr)cc1
inactive: dose: 12.5 mg/kg/injection, schedule: Q01DX009 (ip), vehicle: saline with Tween-80 106 % of control | [1] 95 % of control | [2] 87 % of control | [3] 87 % of control

CCNC(=O)Nc1ccc(C)cc1
inactive: [4] 105 % of control | [5] 97 % of control | [6] 103 % of control

CCCCCCCCCCCCCCCC
inactive: dose: 25.0 mg/kg/injection, schedule: Q04DX003 (ip), vehicle: Klucel (hydroxypropylcellulose) (HPC) 96 % of control | dose: 50.0 mg/kg/injection, schedule: Q04DX003 (ip), vehicle: Klucel (hydroxypropylcellulose) (HPC) 94 % of control | dose: 100.0 mg/kg/injection, schedule: Q01DX009 (ip), vehicle: Klucel (hydroxypropylcellulose) (HPC) 109 % of control | dose: 100.0 mg/kg/injection, schedule: Q04DX003 (ip), vehicle: Klucel (hydroxypropylcellulose) (HPC) 100 % of control and 104 % of control | dose: 200.0 mg/kg/injection, schedule: Q01DX009 (ip), vehicle: Klucel (hydroxypropylcellulose) (HPC) 96 % of control | dose: 200.0 mg/kg/injection, schedule: Q04DX003 (ip), vehicle: Klucel (hydroxypropylcellulose) (HPC) 102 % of control | dose: 400.0 mg/kg/injection, schedule: Q01DX009 (ip), vehicle: Klucel (hydroxypropylcellulose) (HPC) 89 % of control | dose: 400.0 mg/kg/injection, schedule: Q04DX003 (ip), vehicle: Klucel (hydroxypropylcellulose) (HPC) 97 % of control

CCCCCCc1cc(N=Nc2ccc(S(=O)(=O)Nc3occ(C)c3C)cc2)c(O)cc1O
inactive: [4] 93 % of control | [5] 93 % of control | [6] 98 % of control

N#CCCC[P+](c1ccccc1)(c1ccccc1)c1ccccc1
inactive: dose: 75.0 mg/kg/injection, schedule: Q01DX001 (ip), vehicle: other 97 % of control | [7] 98 % of control

O=C(O)CSc1ccc([N+](=O)[O-])cc1[N+](=O)[O-]
inactive: [7] 100 % of control | dose: 200.0 mg/kg/injection, schedule: Q04DX002 (ip), vehicle: Klucel (hydroxypropylcellulose) (HPC) 96 % of control | dose: 400.0 mg/kg/injection, schedule: Q04DX002 (ip), vehicle: Klucel (hydroxypropylcellulose) (HPC) 96 % of control
